The assay deals with P388 leukemia ip, CD2F1 mice, survival T/C. Put plainly: NCI In Vivo Anticancer Drug Screen. Data for tumor model P388 Leukemia (intraperitoneal) in CD2F1 (CDF1) mice. Particulars: endpoint: median survival time, higher = longer survival. An outline of the steps: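 Mice carrying the transplanted tumor received test compound or vehicle. Survival was recorded in each group, and the value is the treated-group measurement divided by that of the vehicle-treated control group.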

[1] abbreviates: dose: 60.0 mg/kg/injection, schedule: Q01DX005 (ip), vehicle: Klucel (hydroxypropylcellulose) (HPC).
The mark [2] stands for this setting: dose: 120.0 mg/kg/injection, schedule: Q01DX005 (ip), vehicle: Klucel (hydroxypropylcellulose) (HPC).
[3] abbreviates: dose: 240.0 mg/kg/injection, schedule: Q01DX005 (ip), vehicle: Klucel (hydroxypropylcellulose) (HPC).
Setting [4] is: dose: 60.0 mg/kg/injection, schedule: Q01DX005 (ip), vehicle: saline with Tween-80.
Where [5] appears, read: dose: 120.0 mg/kg/injection, schedule: Q01DX005 (ip), vehicle: saline with Tween-80.
[6] abbreviates: dose: 240.0 mg/kg/injection, schedule: Q01DX005 (ip), vehicle: saline with Tween-80.
[7] abbreviates: dose: 50.0 mg/kg/injection, schedule: Q01DX009 (ip), vehicle: saline with Tween-80.
Where [8] appears, read: dose: 100.0 mg/kg/injection, schedule: Q01DX009 (ip), vehicle: saline with Tween-80.
Setting [9] is: dose: 200.0 mg/kg/injection, schedule: Q01DX009 (ip), vehicle: saline with Tween-80.
Setting [10] is: dose: 50.0 mg/kg/injection, schedule: Q01DX005 (ip), vehicle: saline with Tween-80.
[11] abbreviates: dose: 100.0 mg/kg/injection, schedule: Q01DX005 (ip), vehicle: saline with Tween-80.
The mark [12] stands for this setting: dose: 50.0 mg/kg/injection, schedule: Q01DX001 (ip), vehicle: Klucel (hydroxypropylcellulose) (HPC).
The mark [13] stands for this setting: dose: 100.0 mg/kg/injection, schedule: Q01DX001 (ip), vehicle: Klucel (hydroxypropylcellulose) (HPC).
[14] abbreviates: dose: 200.0 mg/kg/injection, schedule: Q01DX001 (ip), vehicle: Klucel (hydroxypropylcellulose) (HPC).

“And” between values parts separate entries of the source, which are not always exact repeats. Equal values may be shown once. Inconclusive results and toxic doses are left out.

On to `Nc1nc(-c2ccc3ccccc3c2)cc(-c2cc(-c3ccc4ccccc4c3)nc(N)n2)n1`, for which the T/C was 96 % of control under setting [1], 93 % of control under setting [2] and 91 % of control under setting [3].

As to `CCOP1(=O)N(C)CCN1C`, the T/C is 117 % of control (dose: 12.5 mg/kg/injection, schedule: Q01DX009 (ip), vehicle: saline); 111 % of control (dose: 25.0 mg/kg/injection, schedule: Q01DX009 (ip), vehicle: saline); 101 % of control (dose: 50.0 mg/kg/injection, schedule: Q01DX009 (ip), vehicle: saline).

Turning to `C=C(C)C(=O)OC1CCC2(C)C(CCC3C2CCC2(C)C(c4ccc(=O)oc4)CC4OC432)C1` (centres undefined), the T/C is, setting by setting: (dose: 1.25 mg/kg/injection, schedule: Q01DX009 (ip), vehicle: saline with Tween-80) 98 % of control; (dose: 2.5 mg/kg/injection, schedule: Q01DX009 (ip), vehicle: saline with Tween-80) 100 % of control; (dose: 5.0 mg/kg/injection, schedule: Q01DX009 (ip), vehicle: saline with Tween-80) 122 % of control; (dose: 10.0 mg/kg/injection, schedule: Q01DX009 (ip), vehicle: saline with Tween-80) 106 % of control; (dose: 20.0 mg/kg/injection, schedule: Q01DX009 (ip), vehicle: saline with Tween-80) 100 % of control.

For `CCC(C)C[c-]1[c-][c-][c-][c-]1.[Cl][Zr][Cl].[c-]1[c-][c-][cH-][c-]1` (centres undefined), the T/C is, setting by setting: (dose: 6.25 mg/kg/injection, schedule: Q04DX002 (ip), vehicle: saline) 102 % of control; (dose: 12.5 mg/kg/injection, schedule: Q01DX001 (ip), vehicle: saline with Tween-80) 100 % of control; (dose: 12.5 mg/kg/injection, schedule: Q04DX002 (ip), vehicle: saline) 106 % of control; (dose: 25.0 mg/kg/injection, schedule: Q01DX001 (ip), vehicle: saline with Tween-80) 98 % of control; (dose: 25.0 mg/kg/injection, schedule: Q04DX002 (ip), vehicle: saline) 100 % of control; (dose: 50.0 mg/kg/injection, schedule: Q01DX001 (ip), vehicle: saline with Tween-80) 97 % of control.

On to `c1ccc2c(c1)[nH]c1c3ccccc3sc21`, for which the T/C under setting [1] was 106 % of control, the T/C under setting [2] is 107 % of control and the T/C under setting [3] was 105 % of control.

For `CSc1c2c([nH]c(=O)c1C#N)-c1ccccc1CC2`, the T/C (dose: 30.0 mg/kg/injection, schedule: Q01DX005 (ip), vehicle: saline with Tween-80) was 89 % of control; the T/C under setting [4] was 91 % of control; the T/C under setting [5] is 95 % of control and 96 % of control; the T/C under setting [6] is 88 % of control.

As to `FC(F)(F)c1ccc(NC(=S)SCc2ccc(Cl)cc2)cc1`, the T/C by setting is: (dose: 50.0 mg/kg/injection, schedule: Q01DX009 (ip), vehicle: suspension in saline) 90 % of control; (dose: 100.0 mg/kg/injection, schedule: Q01DX009 (ip), vehicle: suspension in saline) 100 % of control; (dose: 200.0 mg/kg/injection, schedule: Q01DX009 (ip), vehicle: suspension in saline) 108 % of control.

As to `C(=C\c1cccs1)/c1csnn1`, the T/C is, setting by setting: under setting [4], 101 % of control; under setting [5], 102 % of control; under setting [6], 101 % of control.

With `O=c1nc(-c2ccccc2)c(-c2ccccc2)n[nH]1`, the T/C runs as follows: under setting [7], 100 % of control; under setting [8], 100 % of control; under setting [9], 100 % of control.

Consider `CC(C)CC(C)C1CCC(C)C1CCC(C)OC=O` (centres undefined), for which the T/C is 102 % of control under setting [10]; 114 % of control under setting [11]; 98 % of control (dose: 200.0 mg/kg/injection, schedule: Q01DX005 (ip), vehicle: saline with Tween-80).

Take `CNC(=O)OCc1c(COC(=O)NC)c(-c2ccc(Cl)cc2)n(C)c1-c1ccccc1`: the T/C by setting is: (dose: 12.5 mg/kg/injection, schedule: Q01DX009 (ip), vehicle: distilled water + Tween-80) 154 % of control; (dose: 25.0 mg/kg/injection, schedule: Q01DX009 (ip), vehicle: distilled water + Tween-80) 157 % of control and 172 % of control; (dose: 50.0 mg/kg/injection, schedule: Q01DX009 (ip), vehicle: distilled water + Tween-80) 181 % of control.

With `O=c1[nH]c2c(Cl)c(Cl)c(Cl)c(Cl)c2[nH]c1=O`, the T/C under setting [10] was 90 % of control and the T/C under setting [11] is 87 % of control.

As to `CCN(CC)C1=NS(=O)(=O)c2ccccc2C(=O)C1C` (centres undefined), the T/C by setting is: (dose: 100.0 mg/kg/injection, schedule: Q04DX002 (ip), vehicle: Klucel (hydroxypropylcellulose) (HPC)) 102 % of control; (dose: 200.0 mg/kg/injection, schedule: Q04DX002 (ip), vehicle: Klucel (hydroxypropylcellulose) (HPC)) 100 % of control; (dose: 400.0 mg/kg/injection, schedule: Q04DX002 (ip), vehicle: Klucel (hydroxypropylcellulose) (HPC)) 100 % of control.

For `CC(=O)OC1CC2(C)CCC3C(C)C(=O)OC3C2C(C)C1=O` (centres undefined), the T/C reads like this: (dose: 100.0 mg/kg/injection, schedule: Q04DX002 (ip), vehicle: saline with Tween-80) 100 % of control; (dose: 200.0 mg/kg/injection, schedule: Q04DX002 (ip), vehicle: saline with Tween-80) 100 % of control; (dose: 400.0 mg/kg/injection, schedule: Q04DX002 (ip), vehicle: saline with Tween-80) 99 % of control and 100 % of control.

On to `Cc1cnc(NCCCCCCNc2ncc(C)c(-c3ccccc3O)n2)nc1-c1ccccc1O`, for which the T/C (dose: 100.0 mg/kg/injection, schedule: Q04DX003 (ip), vehicle: saline with Tween-80) was 91 % of control; the T/C (dose: 200.0 mg/kg/injection, schedule: Q04DX003 (ip), vehicle: saline with Tween-80) was 97 % of control; the T/C (dose: 400.0 mg/kg/injection, schedule: Q04DX003 (ip), vehicle: saline with Tween-80) was 91 % of control.

In the case of `COC1(OC)C(C#N)=C(c2ccccc2)C1(OC)OC`, the T/C under setting [1] is 115 % of control, the T/C under setting [2] is 102 % of control and the T/C under setting [3] was 101 % of control.

Consider `COc1ccc(CNCCNCc2ccc(OC)cc2)cc1`, for which the T/C reads like this: under setting [12], 93 % of control; under setting [13], 93 % of control; under setting [14], 90 % of control.

In the case of `COc1cc2c(cc1OC(C)=O)C(=O)C(Br)(Br)CCC2`, the T/C is 98 % of control (dose: 15.0 mg/kg/injection, schedule: Q01DX009 (ip), vehicle: saline with Tween-80); 103 % of control (dose: 25.0 mg/kg/injection, schedule: Q01DX009 (ip), vehicle: saline with Tween-80); 106 % of control (dose: 30.0 mg/kg/injection, schedule: Q01DX009 (ip), vehicle: saline with Tween-80); 100 % of control and 116 % of control under setting [7]; 100 % of control (dose: 60.0 mg/kg/injection, schedule: Q01DX009 (ip), vehicle: saline with Tween-80); 99 % of control under setting [8]. The T/C under setting [9] was 106 % of control.

On to `O=P(N1CC=CCC1)(N1CC1)N1CC1`, for which the T/C was 118 % of control (dose: 4.4 mg/kg/injection, schedule: Q04DX003 (ip), vehicle: saline); 154 % of control (dose: 5.56 mg/kg/injection, schedule: Q01DX009 (ip), vehicle: saline); 113 % of control (dose: 6.6 mg/kg/injection, schedule: Q04DX003 (ip), vehicle: saline); 209 % of control (dose: 8.33 mg/kg/injection, schedule: Q01DX009 (ip), vehicle: saline); 118 % of control (dose: 10.0 mg/kg/injection, schedule: Q04DX003 (ip), vehicle: saline).

Regarding `COC(=O)CCC1=C(C)c2cc3[n-]c(cc4nc(cc5[n-]c(cc1n2)c(CCC(=O)OC)c5C)C=C4C)cc3C.[Ni+2]`, the T/C under setting [8] is 90 % of control; the T/C under setting [9] is 90 % of control; the T/C (dose: 400.0 mg/kg/injection, schedule: Q01DX009 (ip), vehicle: saline with Tween-80) was 86 % of control.

With `COc1ccc(N=Cc2ccc(C(N)=S)cc2)cc1`, the T/C under setting [12] is 107 % of control, the T/C under setting [13] is 102 % of control and the T/C under setting [14] is 98 % of control.

For the origin of these results see PubChem BioAssay AID330 (DTP/NCI, 2004).
